Consider four molecules from ChEMBL document CHEMBL1150729, “Constituents of Paramichelia baillonii: a new antitumor germacranolide alkaloid” (1987).

Values after ≈ are worked out from the molar mass of the structure shown. Active and inactive are the calls of the source. The calls are words filed in the database; no cut-off is given here.

What all share (format): functional
Test [1] can be described thus: (§1) Cytotoxicity against human 9KB cells. The settings on record: read-out: ED50 (the source's name).
Test [2] is described as follows: Cytotoxicity against human Laryngeal epidermoid carcinoma cells. To be noted: read-out: ED50 (the source's name).
The test system of a further test is KB. Briefly: Cytotoxicity against human KB cells. To be noted: read-out: ED50 (the source's name).
A further test concerns 9KB. The test is described as §1.

Consider `C=C1C(=O)O[C@@H]2C3O[C@]3(C)CC/C=C(\C)CC[C@@H]12` (stereo not given in full), for which the EC50 in test [1] amounted to 0.45 µg/mL (≈ 1.81 µM); in test [2] it was 0.76 µg/mL (≈ 3.06 µM). With `C/C1=C\CC[C@@]2(C)O[C@H]2[C@H]2OC(=O)[C@@H](CNC[C@@H]3C(=O)O[C@H]4[C@H]3CC/C(C)=C/CC[C@@]3(C)O[C@@H]43)[C@@H]2CC1`, the EC50 with KB worked out at 0.6 µg/mL (≈ 1.17 µM).

For `O=C1c2ccccc2-c2c3c(cc4ccnc1c24)OCO3` [LIRIODENINE], in test [1], the EC50 amounted to 1.6 µg/mL (≈ 5.81 µM). With `C/C1=C\CC[C@@]2(C)O[C@H]2[C@H]2OC(=O)[C@@H](C)[C@@H]2CC1`, the outcome with 9KB was inactive.
